Experimental data reported in patent US20260297060A1, “COMPOUNDS FOR THE DEGRADATION OF MUTANT BRAF” (C4 THERAPEUTICS, INC., priority 2023, published 2026).
Like-named read-outs stand apart in the source and are kept apart here.

Key:
BRAF V600E = biological target: T1, BRAF V600E (Homo sapiens, UniProt P15056+Q96SW2, V600E); assay: BRAF V600E HiBiT Degradation Assay; type: cell-based; conditions: A375.10 cells, BRAF V600E
T1 construct: knock-in of the HiBiT tag to the endogenous BRAF V600E locus; host or cells: A375.10 (A375 clonal line, CRISPR HiBiT knock-in at the endogenous BRAF V600E locus)
T1 sequence (P15056 whole entry V600E): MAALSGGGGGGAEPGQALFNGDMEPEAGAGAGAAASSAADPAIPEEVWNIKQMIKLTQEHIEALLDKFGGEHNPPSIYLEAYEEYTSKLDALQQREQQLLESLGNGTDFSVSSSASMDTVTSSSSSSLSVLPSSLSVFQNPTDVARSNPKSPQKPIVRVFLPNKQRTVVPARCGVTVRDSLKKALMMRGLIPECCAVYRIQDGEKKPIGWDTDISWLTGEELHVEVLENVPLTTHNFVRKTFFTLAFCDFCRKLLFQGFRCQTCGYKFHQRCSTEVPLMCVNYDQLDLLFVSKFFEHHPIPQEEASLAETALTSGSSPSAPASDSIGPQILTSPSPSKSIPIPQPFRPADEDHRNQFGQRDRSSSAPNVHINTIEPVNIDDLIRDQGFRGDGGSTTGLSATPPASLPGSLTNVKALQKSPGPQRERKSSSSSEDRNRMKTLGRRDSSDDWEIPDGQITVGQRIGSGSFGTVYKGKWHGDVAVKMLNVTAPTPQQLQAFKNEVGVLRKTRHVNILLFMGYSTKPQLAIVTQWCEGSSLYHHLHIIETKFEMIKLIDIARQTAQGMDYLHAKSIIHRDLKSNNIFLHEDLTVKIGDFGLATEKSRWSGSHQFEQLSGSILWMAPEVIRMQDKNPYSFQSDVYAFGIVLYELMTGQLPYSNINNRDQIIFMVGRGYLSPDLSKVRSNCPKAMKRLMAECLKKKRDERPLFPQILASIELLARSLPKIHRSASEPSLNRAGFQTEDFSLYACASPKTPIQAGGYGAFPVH
T1 sequence (Q96SW2 whole entry): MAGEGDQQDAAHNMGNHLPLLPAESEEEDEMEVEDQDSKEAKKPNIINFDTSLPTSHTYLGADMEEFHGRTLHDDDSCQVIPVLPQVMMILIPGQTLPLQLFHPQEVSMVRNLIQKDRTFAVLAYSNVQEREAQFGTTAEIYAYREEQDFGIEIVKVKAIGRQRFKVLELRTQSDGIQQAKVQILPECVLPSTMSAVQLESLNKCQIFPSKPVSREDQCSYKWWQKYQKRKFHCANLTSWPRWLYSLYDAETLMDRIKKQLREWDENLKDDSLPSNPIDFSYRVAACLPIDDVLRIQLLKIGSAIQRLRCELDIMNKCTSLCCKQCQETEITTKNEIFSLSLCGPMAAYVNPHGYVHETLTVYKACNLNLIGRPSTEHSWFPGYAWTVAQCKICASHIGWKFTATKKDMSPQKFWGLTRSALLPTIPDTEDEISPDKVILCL
T1 sequence (Q16531 whole entry partner): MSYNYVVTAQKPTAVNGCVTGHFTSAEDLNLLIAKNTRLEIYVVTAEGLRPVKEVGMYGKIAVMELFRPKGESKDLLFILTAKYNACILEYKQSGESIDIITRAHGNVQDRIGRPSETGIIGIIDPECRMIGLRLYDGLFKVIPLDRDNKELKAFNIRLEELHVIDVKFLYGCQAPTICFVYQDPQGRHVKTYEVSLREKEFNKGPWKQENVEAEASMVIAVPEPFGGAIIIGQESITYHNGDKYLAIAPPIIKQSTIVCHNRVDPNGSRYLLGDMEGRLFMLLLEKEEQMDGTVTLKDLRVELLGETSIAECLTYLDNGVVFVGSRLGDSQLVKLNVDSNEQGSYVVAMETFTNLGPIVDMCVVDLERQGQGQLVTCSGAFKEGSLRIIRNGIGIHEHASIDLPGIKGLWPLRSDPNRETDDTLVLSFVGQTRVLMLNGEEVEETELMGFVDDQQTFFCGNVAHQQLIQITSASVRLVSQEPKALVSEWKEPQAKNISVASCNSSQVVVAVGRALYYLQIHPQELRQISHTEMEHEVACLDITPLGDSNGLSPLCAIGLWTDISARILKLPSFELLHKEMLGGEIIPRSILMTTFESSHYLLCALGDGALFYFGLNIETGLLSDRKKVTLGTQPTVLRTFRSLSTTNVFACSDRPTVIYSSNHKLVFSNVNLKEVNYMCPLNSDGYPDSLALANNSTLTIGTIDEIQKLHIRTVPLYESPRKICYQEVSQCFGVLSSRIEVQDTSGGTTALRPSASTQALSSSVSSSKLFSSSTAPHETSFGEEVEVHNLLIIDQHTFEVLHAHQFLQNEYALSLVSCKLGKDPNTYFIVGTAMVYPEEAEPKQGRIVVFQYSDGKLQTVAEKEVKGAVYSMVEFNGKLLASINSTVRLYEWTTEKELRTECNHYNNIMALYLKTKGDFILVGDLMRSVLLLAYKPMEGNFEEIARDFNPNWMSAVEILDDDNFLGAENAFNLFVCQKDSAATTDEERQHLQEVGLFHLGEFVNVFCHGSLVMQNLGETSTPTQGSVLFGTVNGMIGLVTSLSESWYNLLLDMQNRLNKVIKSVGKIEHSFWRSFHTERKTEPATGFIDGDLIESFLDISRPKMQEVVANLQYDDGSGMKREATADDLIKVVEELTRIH
Description: Compounds of this invention were tested for degradation of mutant BRAF V600E using the HiBiT assay, a luminescence-based assay for quantification of cellular protein levels using the Nano-Glo® HiBiT Lytic Detection System (Catalog No. N3050, Promega, Madison, WI USA). This assay utilizes the HiBiT tag on a protein of interest, which creates a luminescent signal in the presence of a complementing peptide and its substrate, the quantification of which is proportional to the amount of HiBiT-tagged protein in the cell.
The cell line A375, which is homozygous for the BRAF V600E mutation, was purchased from ATCC (Catalog No. CRL-1619, Manassas, VA, USA). A375 cells were engineered to express HiBiT tagged BRAF V600E by CRISPR knock-in of the HiBiT tag to the endogenous BRAF V600E locus, followed by selection of a clonal population containing the appropriate knock-in (referred to here as cell line A375.10). A375.10 cells were maintained at 37° C. in an atmosphere of 5% CO2 in Dulbecco's modified Eagle Medium (DMEM) with high glucose (Catalog No. 11965092), supplemented with 10% fetal bovine serum (FBS; Catalog No. 10437036), and 10 mM HEPES (Catalog No. 15630130), all obtained from Thermofisher Scientific (Waltham, MA, USA). Cell culture flasks and 384-well microplates were acquired from VWR (Radnor, PA, USA).
Test compounds were prepared by dissolving neat compounds in DMSO (Catalog No. D8418, Sigma-Aldrich, Inc., St. Louis, MO, USA) to generate 10 mM stock solutions, which were serially diluted (half log) in DMSO to generate an 11-point dose series (1000× final treatment concentration) in a 384-Well Low Dead Volume Microplate (Catalog No. LP-0200, Labcyte, San Jose, CA, USA). Using the Echo 550 Acoustic Liquid Handler (Labcyte), 30 nL of serially diluted compound solutions were dispensed in duplicate to 384-well TC-treated microplates (Catalog No. 3571, Corning, Glendale, CA, USA) and 30 nL of DMSO was dispensed to control wells. A375.10 cells resuspended in growth media without phenol red (Catalog No. 21063-029, Thermofisher Scientific) were then added to 384-well plates containing the 11-point dose series of compounds in duplicate (maximum 10 μM concentration for final treatment) at a density of 12,000 cells/well in 30 μl. Plates were then spun briefly, and cells were incubated with compound at 37° C. for 2 hours, 6 hours, or 24 hours.
Following the appropriate treatment time, Nano-Glo® HiBiT Lytic Assay reagents were added to the cells per the manufacturer's instructions by adding 30 μl of reagent per well, and the luminescence signal was acquired by plate reader. Cells treated with DMSO only (no test compound treatment) were used as the negative control (N). Media only (no cells added) with Nano-Glo reagent addition was used as the background or positive control (P). The percent response of compound treated samples were calculated by subtracting out the background signal (P) and normalizing to the DMSO control (N) as follows.
% Response=100×(Treated Signal−Average (P))/(Average (N)−Average (P)).
Data were analyzed with a 4-parameter logistic fit to generate sigmoidal dose-response curves. The DC50 is the concentration of compound at which 50% of the cellular BRAF V600E has been degraded. The Emax, or maximum effect of each compound, represents the amount of residual protein remaining in the cell following compound treatment. The IP, or inflection point of the dose-response curve, is the concentration of compound at which 50% of the observed degradation response is achieved.
The experiment was conducted at least once for each compound. If the experiment was conducted multiple times, the data shown in the table is the average of the two or more experiments.

A375-NRAS^Q61K cells = assay: CTGlo Cell Viability Assay, A375-NRAS^Q61K (A375.11) cells, 96 hours; type: cell-based, human; conditions: A375.11 (A375-NRAS^Q61K) cells; for CTGlo A375.11 96 hours Emax / Emax: lowest % viability achieved; for Emax: Homo sapiens, 96 h
Description: Compounds of this invention were tested for their effect on the viability of A375-NRAS^Q61K cells by quantification of ATP using the CellTiter-Glo® 2.0 Cell Viability Assay (Catalog No. G9243, Promega, Madison, WI, USA). This assay produces a luminescent signal in the presence of ATP, which is indicative of metabolically active cells, making the luminescence readout proportional to the number of viable cells.
A375-NRAS^Q61K cells (harboring BRAF homozygous V600E mutation and NRAS homozygous Q61K mutation) were purchased from ATCC (Catalog No. CRL-1619IG-2, Manassas, VA, USA). A375-NRAS^Q61K cells (also referred to here as A375.11) were maintained at 37° C. in an atmosphere of 5% CO2 in Dulbecco's modified Eagle Medium (DMEM) with high glucose (Catalog No. 11965092), supplemented with 10% fetal bovine serum (FBS; Catalog No. 10437036), and 10 mM HEPES (Catalog No. 15630130), all obtained from Thermofisher Scientific (Waltham, MA, USA). Cell culture flasks and 384-well microplates were acquired from VWR (Radnor, PA, USA).
Test compounds were prepared by dissolving neat compounds in DMSO (Catalog No. D8418, Sigma-Aldrich, Inc., St. Louis, MO, USA) to generate 10 mM stock solutions, which were serially diluted (half log) in DMSO to generate an 11-point dose series (1000× final treatment concentration) in a 384-Well Low Dead Volume Microplate (Catalog No. LP-0200, Labcyte, San Jose, CA, USA). Using the Echo 550 Acoustic Liquid Handler (Labcyte), 50 nL of serially diluted compound solutions were dispensed in duplicate to 384-well TC-treated microplates (Catalog No. 3571, Corning, Glendale, CA, USA) and 50 nL of DMSO was dispensed to control wells. A375-NRAS^Q61K cells were resuspended in growth media and added to 384-well plates containing a […] of compounds in duplicate (maximum 10 μM concentration for final treatment) at a density of 250 cells/well in 50 μl. Cells were also plated to a 384-well plate with no compound treatment, to which CellTiter-Glo® reagent was added and luminescence was read right after plating to act as a baseline signal at time of plating (To). Plates treated with compound were then spun briefly, and cells were incubated with compound at 37° C. for 96 hours.
After 96 hours compound treatment, CellTiter-Glo® reagent was added to the cells at 25 μl per well and luminescence was read out on the PHERAstar plate reader (BMG Labtech, Ortenberg, Germany). Cells treated with DMSO only (no test compound treatment) were used as the negative control (N). DMSO treated cells with no CellTiter-Glo® reagent added were used as the background or positive control (P). Viability was determined by subtracting out the average background signal (P) and normalized to the average untreated signal (N) set at 100%.
Data were analyzed with a 4-parameter logistic fit to generate sigmoidal dose-response curves. The half-maximal inhibition of cell growth (GI50) is the concentration at which the fitted curve crosses 50%. The Emax, or maximum effect of each compound, represents the lowest % viability achieved following compound treatment.

[1] = 2 hours, inflection point, read-out: HiBiT-Degradation A375.10 BRAF 2 hours IP
[2] = 2 hours, read-out: HiBiT-Degradation A375.10 BRAF 2 hours DC50
[3] = 2 hours, residual protein remaining
[4] = 6 hours, inflection point, read-out: HiBiT-Degradation A375.10 BRAF 6 hours IP
[5] = 6 hours, read-out: HiBiT-Degradation A375.10 BRAF 6 hours DC50
[6] = HiBiT, 24 hours, read-out: HiBiT-Degradation A375.10 BRAF 24 hours DC50
[7] = HiBiT, 24 hours, read-out: HiBiT-Degradation A375.10 BRAF 24 hours IP
[8] = 6 hours, residual protein remaining, read-out: HiBiT-Degradation A375.10 BRAF 6 hours Emax
[9] = HiBiT, 24 hours, read-out: HiBiT-Degradation A375.10 BRAF 24 hours Emax
[10] = 2 hours, residual protein remaining, read-out: HiBiT-Degradation A375.10 BRAF 2 hours Emax

DC50 (BRAF V600E; [1]) [nM]	DC50 (BRAF V600E; [2]) [nM]	HiBiT-Degradation A375.10 BRAF 2 hours Emax (BRAF V600E; [3])	DC50 (BRAF V600E; [4]) [nM]	DC50 (BRAF V600E; [5]) [nM]	HiBiT-Degradation A375.10 BRAF 6 hours Emax (BRAF V600E; 6 hours, residual protein remaining)	HiBiT-Degradation A375.10 BRAF 24 hours Emax (BRAF V600E; HiBiT, 24 hours)	DC50 (BRAF V600E; [6]) [nM]	DC50 (BRAF V600E; [7]) [nM]	GI50 (A375-NRAS^Q61K cells) [nM]	Emax (BRAF V600E; [8]) [%]	Emax (BRAF V600E; [9]) [%]	Emax (BRAF V600E; [10]) [%]	SMILES	CTGlo A375.11 96 hours Emax (A375-NRAS^Q61K cells)	Emax (A375-NRAS^Q61K cells) [%]
< 1000	< 1000	*** (<=50%)	< 1000	< 1000			< 1000	< 1000	< 1000	< 50	< 50		CCN(C)S(=O)(=O)Nc1ccc(F)c(Oc2ccc3ncn(C4CC5(CCN(C6CCC(c7cc8c(cc7F)c(N7CCC(=O)NC7=O)nn8C)CC6)CC5)C4)c(=O)c3c2)c1C#N (single isomer, unassigned) [Compound 9, 6-[2-cyano-3-[[ethyl(methyl)sulfamoyl]amino]-6-fluoro-phenoxy]-3-[7-[4-[3-(2,4-dioxohexahydropyrimidin-1-yl)-5-fluoro-1-methyl-indazol-6-yl]cyclohexyl]-7-azaspiro[3.5]nonan-2-yl]-4-oxo-quinazoline]	*** (<=50%)	
< 1000	< 1000								< 1000			< 50	CCN(C)S(=O)(=O)Nc1ccc(F)c(Oc2ccc3ncn(C4CCC5(CC4)CCN(C4CCC(c6cc7c(cc6F)c(N6CCC(=O)NC6=O)nn7C)CC4)CC5)c(=O)c3c2)c1C#N (single isomer, unassigned) [Compound 12]		< 50

The next lines start with the compound.

SMILES	DC50 (BRAF V600E; [1]) [nM]	DC50 (BRAF V600E; [2]) [nM]	HiBiT-Degradation A375.10 BRAF 2 hours Emax (BRAF V600E; [3])	DC50 (BRAF V600E; [4]) [nM]	DC50 (BRAF V600E; [5]) [nM]	HiBiT-Degradation A375.10 BRAF 6 hours Emax (BRAF V600E; 6 hours, residual protein remaining)	HiBiT-Degradation A375.10 BRAF 24 hours Emax (BRAF V600E; HiBiT, 24 hours)	DC50 (BRAF V600E; [6]) [nM]	DC50 (BRAF V600E; [7]) [nM]	GI50 (A375-NRAS^Q61K cells) [nM]	Emax (BRAF V600E; [8]) [%]	Emax (BRAF V600E; [9]) [%]	Emax (BRAF V600E; [10]) [%]	CTGlo A375.11 96 hours Emax (A375-NRAS^Q61K cells)	Emax (A375-NRAS^Q61K cells) [%]
CCN(C)S(=O)(=O)Nc1ccc(F)c(Oc2ccc3ncn(C4CC5(CCN(C6CCC(c7ccc(NC8CCC(=O)NC8=O)cc7F)CC6)CC5)C4)c(=O)c3c2)c1C#N (single isomer, unassigned) [Compound 7, 6-[2-cyano-3-[[ethyl(methyl)sulfamoyl]amino]-6-fluoro-phenoxy]-3-[7-[4-[4-[(2,6-dioxo-3-piperidyl)amino]-2-fluoro-phenyl]cyclohexyl]-7-azaspiro[3.5]nonan-2-yl]-4-oxo-quinazoline]	< 1000	< 1000	*** (<=50%)	< 1000	< 1000	*** (<=50%)	*** (<=50%)	< 1000	< 1000	< 1000				*** (<=50%)	
CCN(C)S(=O)(=O)Nc1ccc(F)c(Oc2ccc3ncn(C4CCC5(CC4)CCN(C4CCC(c6ccc(NC7CCC(=O)NC7=O)cc6F)CC4)CC5)c(=O)c3c2)c1C#N (single isomer, unassigned) [Compound 10, 9-[6-[2-cyano-3-[[ethyl(methyl)sulfamoyl]amino]-6-fluoro-phenoxy]-4-oxo-quinazolin-3-yl]-3-[4-[4-[(2,6-dioxo-3-piperidyl)amino]-2-fluoro-phenyl]cyclohexyl]-3-azaspiro[5.5]undecane]	< 1000	> 10000								1000 to 10000			50 to 90	*** (<=50%)	
CCN(C)S(=O)(=O)Nc1ccc(F)c(Oc2ccc3ncn(C4CCC5(CC4)CCN(C4CCC(c6ccc(NC7CCC(=O)NC7=O)cc6F)CC4)CC5)c(=O)c3c2)c1C#N (single isomer, unassigned) [Compound 11, 9-[6-[2-cyano-3-[[ethyl(methyl)sulfamoyl]amino]-6-fluoro-phenoxy]-4-oxo-quinazolin-3-yl]-3-[4-[4-[(2,6-dioxo-3-piperidyl)amino]-2-fluoro-phenyl]cyclohexyl]-3-azaspiro[5.5]undecane]	< 1000	< 1000	*** (<=50%)							> 10000					50 to 90
CCN(C)S(=O)(=O)Nc1ccc(F)c(Nc2ccc3ncn([C@H]4COC5(CCN(C6CCC(c7ccc(NC8CCC(=O)NC8=O)cc7F)CC6)CC5)C4)c(=O)c3c2F)c1C#N (single isomer, unassigned) [Compound 98]				< 1000	< 1000			< 1000	< 1000		< 50	< 50			
